Source: doi:10.1101/2023.12.04.569845, “Identification of 4-(6-((2-methoxyphenyl)amino)pyrazin-2-yl)benzoic acids as CSNK2A inhibitors with antiviral activity and improved selectivity over PIM3” (bioRxiv, 2023)
Like-named read-outs stand apart in the source and are kept apart here.

Key:
Test in all cases: biochemical
Set-up in all cases: Thermal shift (DSF, SYPRO Orange) Tm shift of recombinant kinase domains at 10 uM compound
MRCKa = biological target: T1, MRCKa (Homo sapiens, UniProt Q5VT25)
T1 construct: gene CDC42BPA
Method: (§1) S23 Thermal stability kinase selectivity. The assay was performed as previously described. 9,10 Briefly, recombinant protein kinase domains at a concentration of 2 μM were mixed with 10 μM compound in a buffer containing 20 mM HEPES, pH 7.5, and 500 mM NaCl. SYPRO Orange (5000×, Invitrogen) was added as a fluorescence probe (1 µl per mL). Subsequently, temperature-dependent protein unfolding profiles were measured using the QuantStudio™ 5 realtime PCR machine (Thermo Fisher). […] The temperature was raised with a step rate of 3°C per minute. Data points were analysed with the internal software (Thermal Shift SoftwareTM Version 1.4, Thermo Fisher) using the Boltzmann equation to determine the inflection point of the transition curve.

CSNK2a1 = biological target: T2, CSNK2a1 (Homo sapiens, UniProt P68400)
T2 construct: kinase domain
T2 sequence (P68400 whole entry, the tested form may be a part): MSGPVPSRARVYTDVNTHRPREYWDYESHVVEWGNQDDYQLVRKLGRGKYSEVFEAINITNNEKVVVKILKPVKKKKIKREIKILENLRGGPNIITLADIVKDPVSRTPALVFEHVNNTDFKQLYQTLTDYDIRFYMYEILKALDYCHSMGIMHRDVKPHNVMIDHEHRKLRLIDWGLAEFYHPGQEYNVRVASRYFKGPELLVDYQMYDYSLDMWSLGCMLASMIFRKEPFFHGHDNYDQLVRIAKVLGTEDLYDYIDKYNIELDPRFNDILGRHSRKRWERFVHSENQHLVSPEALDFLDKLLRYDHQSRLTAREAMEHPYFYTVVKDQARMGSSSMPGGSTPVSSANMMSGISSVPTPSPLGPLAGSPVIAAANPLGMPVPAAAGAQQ
Method: as §1

WNK1 = WNK1 (Homo sapiens, UniProt Q9H4A3)
Sequence of WNK1 (Q9H4A3 whole entry): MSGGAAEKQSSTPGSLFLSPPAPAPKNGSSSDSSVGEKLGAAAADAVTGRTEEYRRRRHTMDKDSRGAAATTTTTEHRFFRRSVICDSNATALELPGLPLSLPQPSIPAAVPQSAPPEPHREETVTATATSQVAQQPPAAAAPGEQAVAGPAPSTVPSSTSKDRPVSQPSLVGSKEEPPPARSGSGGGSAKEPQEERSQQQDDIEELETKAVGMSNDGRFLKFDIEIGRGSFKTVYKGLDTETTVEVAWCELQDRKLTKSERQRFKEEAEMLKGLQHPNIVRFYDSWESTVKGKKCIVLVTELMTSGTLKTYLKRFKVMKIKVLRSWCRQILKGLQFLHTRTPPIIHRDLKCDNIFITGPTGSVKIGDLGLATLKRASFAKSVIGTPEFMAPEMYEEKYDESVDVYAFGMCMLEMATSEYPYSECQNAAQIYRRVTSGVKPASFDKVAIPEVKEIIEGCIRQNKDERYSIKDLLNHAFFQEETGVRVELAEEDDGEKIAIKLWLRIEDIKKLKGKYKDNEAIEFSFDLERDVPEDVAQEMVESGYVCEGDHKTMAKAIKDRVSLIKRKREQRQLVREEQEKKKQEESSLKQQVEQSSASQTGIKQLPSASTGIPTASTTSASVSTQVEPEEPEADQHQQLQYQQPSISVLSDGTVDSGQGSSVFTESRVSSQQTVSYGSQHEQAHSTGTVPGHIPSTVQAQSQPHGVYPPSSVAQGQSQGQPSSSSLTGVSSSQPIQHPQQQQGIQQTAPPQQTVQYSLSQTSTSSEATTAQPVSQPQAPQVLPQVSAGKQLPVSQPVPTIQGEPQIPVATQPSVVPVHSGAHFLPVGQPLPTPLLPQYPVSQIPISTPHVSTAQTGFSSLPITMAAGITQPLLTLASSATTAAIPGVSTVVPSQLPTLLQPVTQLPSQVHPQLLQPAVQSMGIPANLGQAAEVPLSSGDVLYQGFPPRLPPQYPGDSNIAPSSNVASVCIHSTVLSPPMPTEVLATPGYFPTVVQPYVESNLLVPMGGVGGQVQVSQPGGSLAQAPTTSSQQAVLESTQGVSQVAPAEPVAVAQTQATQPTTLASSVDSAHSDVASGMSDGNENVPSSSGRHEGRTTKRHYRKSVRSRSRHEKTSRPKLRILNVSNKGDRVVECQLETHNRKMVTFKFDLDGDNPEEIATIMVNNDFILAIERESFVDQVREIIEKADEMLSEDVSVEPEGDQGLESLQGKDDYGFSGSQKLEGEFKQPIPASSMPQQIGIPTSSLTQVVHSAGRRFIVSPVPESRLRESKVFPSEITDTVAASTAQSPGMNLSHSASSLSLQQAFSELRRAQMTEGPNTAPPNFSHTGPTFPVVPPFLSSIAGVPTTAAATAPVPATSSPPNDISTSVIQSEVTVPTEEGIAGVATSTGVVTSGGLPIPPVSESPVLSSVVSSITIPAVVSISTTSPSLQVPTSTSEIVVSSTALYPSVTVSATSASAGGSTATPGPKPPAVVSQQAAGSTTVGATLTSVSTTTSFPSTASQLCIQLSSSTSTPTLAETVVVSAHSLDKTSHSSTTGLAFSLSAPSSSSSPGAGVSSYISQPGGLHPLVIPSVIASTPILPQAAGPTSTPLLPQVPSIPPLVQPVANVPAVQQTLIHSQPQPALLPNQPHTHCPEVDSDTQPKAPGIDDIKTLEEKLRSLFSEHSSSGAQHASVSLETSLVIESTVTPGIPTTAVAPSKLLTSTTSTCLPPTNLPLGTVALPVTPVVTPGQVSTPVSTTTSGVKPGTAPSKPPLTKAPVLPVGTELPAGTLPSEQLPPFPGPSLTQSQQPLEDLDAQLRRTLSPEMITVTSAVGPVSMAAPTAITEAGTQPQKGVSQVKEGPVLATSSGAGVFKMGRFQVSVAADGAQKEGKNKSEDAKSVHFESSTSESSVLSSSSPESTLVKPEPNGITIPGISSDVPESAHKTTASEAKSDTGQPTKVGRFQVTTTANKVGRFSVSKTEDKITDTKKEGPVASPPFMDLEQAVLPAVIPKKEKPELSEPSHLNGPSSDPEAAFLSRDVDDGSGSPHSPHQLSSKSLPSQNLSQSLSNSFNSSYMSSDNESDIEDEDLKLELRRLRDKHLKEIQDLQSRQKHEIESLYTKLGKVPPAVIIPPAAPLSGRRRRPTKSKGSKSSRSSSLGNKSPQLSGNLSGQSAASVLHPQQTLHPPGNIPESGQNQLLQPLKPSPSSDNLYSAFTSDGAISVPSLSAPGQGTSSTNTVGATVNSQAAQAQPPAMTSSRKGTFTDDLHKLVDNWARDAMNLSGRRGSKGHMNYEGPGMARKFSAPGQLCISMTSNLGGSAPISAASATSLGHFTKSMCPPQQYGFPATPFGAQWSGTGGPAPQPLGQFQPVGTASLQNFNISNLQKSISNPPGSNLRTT
Method: as §1

HIPK2 = HIPK2 (Homo sapiens, UniProt Q9H2X6)
Method: as §1

AAK1 = AAK1 (Homo sapiens, UniProt Q2M2I8)
Sequence of AAK1 (Q2M2I8 whole entry): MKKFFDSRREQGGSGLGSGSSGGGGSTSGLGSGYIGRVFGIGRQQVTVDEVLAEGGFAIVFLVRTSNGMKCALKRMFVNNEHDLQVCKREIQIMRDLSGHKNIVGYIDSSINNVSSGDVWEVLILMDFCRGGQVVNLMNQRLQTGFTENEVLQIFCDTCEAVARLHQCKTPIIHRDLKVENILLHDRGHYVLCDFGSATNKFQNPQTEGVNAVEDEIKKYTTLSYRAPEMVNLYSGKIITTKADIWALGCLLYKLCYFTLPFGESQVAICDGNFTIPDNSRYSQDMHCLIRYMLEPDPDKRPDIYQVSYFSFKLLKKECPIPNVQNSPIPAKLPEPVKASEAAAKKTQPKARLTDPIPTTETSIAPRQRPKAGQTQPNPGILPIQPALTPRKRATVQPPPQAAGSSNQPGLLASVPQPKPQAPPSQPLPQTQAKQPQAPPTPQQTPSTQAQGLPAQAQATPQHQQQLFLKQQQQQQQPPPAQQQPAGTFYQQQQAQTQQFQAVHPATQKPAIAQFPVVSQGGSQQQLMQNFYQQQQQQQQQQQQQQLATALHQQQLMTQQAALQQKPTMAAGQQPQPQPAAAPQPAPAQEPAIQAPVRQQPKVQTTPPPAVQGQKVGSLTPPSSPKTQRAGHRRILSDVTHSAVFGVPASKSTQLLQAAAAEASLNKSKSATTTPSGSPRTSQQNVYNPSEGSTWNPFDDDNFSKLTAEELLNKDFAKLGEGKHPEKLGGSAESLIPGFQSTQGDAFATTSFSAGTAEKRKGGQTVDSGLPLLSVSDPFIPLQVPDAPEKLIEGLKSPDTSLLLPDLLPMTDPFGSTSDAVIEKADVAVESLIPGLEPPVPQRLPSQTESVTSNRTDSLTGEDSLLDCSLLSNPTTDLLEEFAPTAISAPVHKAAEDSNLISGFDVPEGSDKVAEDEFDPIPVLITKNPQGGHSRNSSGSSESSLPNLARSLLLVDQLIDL
Method: as §1

PLK4 = biological target: T3, PLK4 (Homo sapiens, UniProt O00444)
T3 sequence (O00444 1-970): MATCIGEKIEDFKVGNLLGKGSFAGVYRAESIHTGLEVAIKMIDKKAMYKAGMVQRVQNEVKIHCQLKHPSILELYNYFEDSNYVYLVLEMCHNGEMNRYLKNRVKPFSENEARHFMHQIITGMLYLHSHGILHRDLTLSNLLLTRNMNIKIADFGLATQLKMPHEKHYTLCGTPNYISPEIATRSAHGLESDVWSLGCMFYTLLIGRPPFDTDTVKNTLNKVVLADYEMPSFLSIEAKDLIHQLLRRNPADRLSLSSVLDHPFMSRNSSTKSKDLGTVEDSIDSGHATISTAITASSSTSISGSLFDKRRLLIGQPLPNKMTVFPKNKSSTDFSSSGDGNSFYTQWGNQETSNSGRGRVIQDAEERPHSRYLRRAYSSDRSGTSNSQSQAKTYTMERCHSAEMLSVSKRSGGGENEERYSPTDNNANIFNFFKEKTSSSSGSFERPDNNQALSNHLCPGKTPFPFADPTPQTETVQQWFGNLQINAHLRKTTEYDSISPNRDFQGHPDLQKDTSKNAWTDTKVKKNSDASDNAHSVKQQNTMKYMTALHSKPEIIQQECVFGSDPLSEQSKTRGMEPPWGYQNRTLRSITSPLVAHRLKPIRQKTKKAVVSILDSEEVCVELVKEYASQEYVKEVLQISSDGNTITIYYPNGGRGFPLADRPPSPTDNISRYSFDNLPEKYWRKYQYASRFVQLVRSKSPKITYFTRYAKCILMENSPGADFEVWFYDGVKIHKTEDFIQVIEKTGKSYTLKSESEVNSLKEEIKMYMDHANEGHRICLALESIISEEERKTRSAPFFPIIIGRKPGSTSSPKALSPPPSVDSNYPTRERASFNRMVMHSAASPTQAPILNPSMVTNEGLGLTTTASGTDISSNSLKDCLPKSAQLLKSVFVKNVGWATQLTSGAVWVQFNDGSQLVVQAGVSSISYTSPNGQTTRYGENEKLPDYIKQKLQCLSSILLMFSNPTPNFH
Method: as §1

MARK3 = MARK3 (Homo sapiens, UniProt P27448)
Sequence of MARK3 (P27448 whole entry): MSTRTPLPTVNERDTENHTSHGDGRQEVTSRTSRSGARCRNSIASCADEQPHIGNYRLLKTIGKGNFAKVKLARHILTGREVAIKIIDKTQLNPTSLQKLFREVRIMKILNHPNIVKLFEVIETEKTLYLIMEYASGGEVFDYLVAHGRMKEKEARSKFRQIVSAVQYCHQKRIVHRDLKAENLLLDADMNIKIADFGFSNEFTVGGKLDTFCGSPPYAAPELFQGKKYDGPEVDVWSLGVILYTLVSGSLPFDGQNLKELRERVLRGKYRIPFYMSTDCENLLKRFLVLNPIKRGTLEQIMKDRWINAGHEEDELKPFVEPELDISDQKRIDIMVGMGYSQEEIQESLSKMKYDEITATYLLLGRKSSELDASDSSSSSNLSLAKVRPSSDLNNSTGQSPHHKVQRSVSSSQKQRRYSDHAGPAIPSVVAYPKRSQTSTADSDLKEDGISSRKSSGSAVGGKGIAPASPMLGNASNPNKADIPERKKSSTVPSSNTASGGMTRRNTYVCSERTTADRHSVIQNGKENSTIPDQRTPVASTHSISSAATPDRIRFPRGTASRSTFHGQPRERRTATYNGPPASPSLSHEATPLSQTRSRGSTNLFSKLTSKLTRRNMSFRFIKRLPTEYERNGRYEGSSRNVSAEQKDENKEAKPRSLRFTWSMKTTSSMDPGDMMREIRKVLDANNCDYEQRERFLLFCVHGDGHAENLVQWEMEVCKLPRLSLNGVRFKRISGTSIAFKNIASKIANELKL
Method: as §1

PIM1 = PIM1 (Homo sapiens, UniProt P11309)
Sequence of PIM1 (P11309 whole entry): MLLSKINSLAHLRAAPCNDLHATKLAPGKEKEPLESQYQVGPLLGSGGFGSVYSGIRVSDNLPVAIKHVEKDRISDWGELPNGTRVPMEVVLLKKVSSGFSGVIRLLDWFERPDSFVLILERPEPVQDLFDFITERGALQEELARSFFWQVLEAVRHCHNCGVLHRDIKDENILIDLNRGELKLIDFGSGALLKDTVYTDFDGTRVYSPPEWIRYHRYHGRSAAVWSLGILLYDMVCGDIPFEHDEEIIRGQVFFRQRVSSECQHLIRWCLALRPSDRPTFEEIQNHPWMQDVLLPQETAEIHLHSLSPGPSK
Method: as §1

CDK2 = CDK2 (Homo sapiens, UniProt P24941)
Method: as §1

MAP2K7 = biological target: T4, MAP2K7 (Homo sapiens, UniProt O14733)
T4 sequence (O14733 1-419): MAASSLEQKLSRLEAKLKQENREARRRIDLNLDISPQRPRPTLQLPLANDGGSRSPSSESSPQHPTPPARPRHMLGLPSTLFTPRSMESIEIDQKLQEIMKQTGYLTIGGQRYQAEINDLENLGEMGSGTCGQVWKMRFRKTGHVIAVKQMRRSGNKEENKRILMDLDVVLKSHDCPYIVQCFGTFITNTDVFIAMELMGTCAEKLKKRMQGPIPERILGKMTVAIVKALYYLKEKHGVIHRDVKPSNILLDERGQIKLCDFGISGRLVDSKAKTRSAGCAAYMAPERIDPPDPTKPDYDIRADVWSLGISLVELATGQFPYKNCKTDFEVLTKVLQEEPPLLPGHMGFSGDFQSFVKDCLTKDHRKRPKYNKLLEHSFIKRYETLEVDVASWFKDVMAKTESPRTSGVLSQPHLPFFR
Method: as §1

A ΔTm at 10 µM (MRCKa; read-out: 7c) of 0 °C, a ΔTm at 10 µM (CSNK2a1; read-out: 7c) of 15 °C and a ΔTm at 10 µM (WNK1; read-out: 7c) of 0 °C were found for `COc1ccc(OC(C)C)cc1Nc1cncc(-c2ccc(C(=O)O)cc2)n1` [7c] in this work. The ΔTm at 10 µM (HIPK2; read-out: 7c) was 7 °C, the ΔTm at 10 µM (AAK1; read-out: 7c) was 5 °C and the ΔTm at 10 µM (PLK4; read-out: 7c) was 6 °C. It also gave a ΔTm at 10 µM (MARK3; read-out: 7c) of -1 °C, a ΔTm at 10 µM (PIM1; read-out: 7c) of 9 °C and a ΔTm at 10 µM (CDK2; read-out: 7c) of 1 °C. The ΔTm at 10 µM (MAP2K7; read-out: 7c) was -1 °C.

A ΔTm at 10 µM (MRCKa; read-out: 2) of 0 °C, a ΔTm at 10 µM (WNK1; read-out: 2) of 1 °C and a ΔTm at 10 µM (AAK1; read-out: 2) of 7 °C were found for `CC(C)Nc1ccc2cnn(-c3cncc(-c4ccc(C(=O)O)cc4)n3)c2c1` [compound 2, 2] in this work. The ΔTm at 10 µM (PLK4; read-out: 2) was 11 °C, the ΔTm at 10 µM (MARK3; read-out: 2) was 0 °C and the ΔTm at 10 µM (MAP2K7; read-out: 2) was 0 °C.

A ΔTm at 10 µM (MRCKa; read-out: 6c) of -1 °C, a ΔTm at 10 µM (CSNK2a1; read-out: 6c) of 15 °C and a ΔTm at 10 µM (WNK1; read-out: 6c) of 2 °C were found for `CC(C)Oc1ccc2ccn(-c3cncc(-c4ccc(C(=O)O)cc4)n3)c2c1` [6c] in this work. It also gave a ΔTm at 10 µM (HIPK2; read-out: 6c) of 9 °C, a ΔTm at 10 µM (AAK1; read-out: 6c) of 6 °C and a ΔTm at 10 µM (PLK4; read-out: 6c) of 10 °C. It also gave a ΔTm at 10 µM (MARK3; read-out: 6c) of -1 °C, a ΔTm at 10 µM (PIM1; read-out: 6c) of 10 °C and a ΔTm at 10 µM (CDK2; read-out: 6c) of 5 °C. For the same molecule, the ΔTm at 10 µM (MAP2K7; read-out: 6c) was 0 °C.
